Measurements taken from PubChem BioAssay (NCI).
Several values for one entry are separate records, joined by “and”; a condition that tells them apart may be missing. Identical values can stand only once.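 Five compound concentrations were applied to cells in 96-well plates for 48 hours; endpoints were derived by simple linear interpolation of the resulting dose-response curve. At the GI50, growth is halved. The concentration for full growth arrest is given as TGI.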

What was measured:
Experiment in all cases: NCI anticancer screen, dose series, 48 h
[1] = test system: NCI/ADR-RES ovarian
[2] = test system: OVCAR-4 ovarian
[3] = test system: HS 578T breast
[4] = test system: NCI-H522 lung
[5] = test system: RPMI-8226 leukemia
[6] = test system: HL-60(TB) leukemia
[7] = test system: MDA-MB-435

Structure (SMILES): O=S(=O)(Nc1ccc(Br)cc1)c1ccc(-c2cnc(C3CC3)o2)cc1
- GI50 [1]: 1 µM
- TGI [1]: 10.4 µM
- GI50 [2]: 3.8 µM
- TGI [2]: 18 µM
- GI50 [3]: 1.38 µM
- TGI [3]: 6.17 µM
- GI50 [4]: 0.855 µM
- TGI [4]: 12.9 µM
- GI50 [5]: 2.62 µM
- TGI [5]: 14.5 µM
- GI50 [6]: 1.47 µM
- TGI [6]: 6.41 µM
- GI50 [7]: 0.239 µM
- TGI [7]: 0.646 µM

Structure (SMILES): CCN1C(=O)N(CC)C2C1NN=c1s/c(=C\c3ccc(Cl)cc3Cl)c(=O)n12 (stereo unspecified)
- GI50 [1]: 0.0301 µM
- TGI [1]: > 32 µM
- GI50 [2]: 0.0792 µM
- TGI [2]: > 95.9 µM
- GI50 [3]: 0.0379 µM
- TGI [3]: > 50.5 µM
- GI50 [4]: 0.0216 µM
- TGI [4]: 0.219 µM
- GI50 [5]: 0.0391 µM
- TGI [5]: 7.25 µM
- GI50 [6]: 0.0227 µM
- TGI [6]: 0.0534 µM
- GI50 [7]: 0.0206 µM
- TGI [7]: 0.0572 µM

Structure (SMILES): C1CSCCCSCCCSCCCSCCCSCCCSCCCSCCCSC1
- TGI [1]: > 100 µM
- TGI [2]: > 100 µM
- TGI [3]: > 100 µM
- TGI [4]: > 100 µM
- TGI [5]: > 100 µM
- TGI [6]: > 100 µM
- TGI [7]: > 100 µM

Structure (SMILES): C[C@@H](NC(C#N)c1ccco1)c1ccccc1 (stereo partly specified)
- TGI [1]: > 100 µM
- TGI [3]: > 100 µM
- TGI [5]: > 100 µM
- TGI [6]: > 100 µM
- TGI [7]: > 100 µM

Structure (SMILES): c1ccc(-c2nc(-c3ccccn3)nc(-c3ccccn3)n2)nc1
- GI50 [1]: 6.37 µM
- TGI [1]: > 100 µM
- GI50 [2]: 18.6 µM
- TGI [2]: > 100 µM
- GI50 [3]: 53.6 µM
- TGI [3]: > 100 µM
- GI50 [4]: 21.6 µM
- TGI [4]: 81.8 µM
- GI50 [5]: 18.3 µM
- TGI [5]: > 100 µM
- GI50 [6]: 38.2 µM
- TGI [6]: > 100 µM
- GI50 [7]: 41.3 µM
- TGI [7]: > 100 µM

Structure (SMILES): N#C[Se]Cc1cc(-c2ccccc2)n(-c2ccc(S(N)(=O)=O)cc2)n1
- GI50 [1]: 5.51 µM
- TGI [1]: 40 µM
- GI50 [2]: 2.61 µM
- TGI [2]: 8.16 µM
- GI50 [3]: 0.637 µM
- TGI [3]: 5.21 µM
- GI50 [4]: 2.14 µM
- TGI [4]: 5.55 µM
- GI50 [5]: 1.9 µM
- TGI [5]: 5.02 µM
- GI50 [6]: 0.939 µM
- TGI [6]: 3.87 µM
- GI50 [7]: 0.605 µM
- TGI [7]: 2.45 µM

Structure (SMILES): Cc1ccc2cnc(N)c(C#Cc3cc(C(=O)Nc4ccc(CN5CCN(C)CC5)c(C(F)(F)F)c4)cnc3C)c2c1
- GI50 [1]: 1.05 µM
- TGI [1]: 2.9 µM
- GI50 [2]: 0.436 µM
- TGI [2]: 8.36 µM
- GI50 [3]: 0.901 µM
- TGI [3]: 2.76 µM
- GI50 [4]: 0.588 µM
- TGI [4]: 1.36 µM
- GI50 [5]: 1.01 µM
- TGI [5]: 2.86 µM
- GI50 [6]: 1.73 µM
- TGI [6]: 6.58 µM
- GI50 [7]: 0.262 µM
- TGI [7]: 1.01 µM

Structure (SMILES): Cn1ncc(-c2ccc3c(=O)[nH]nc(CN)c3c2)c1-c1c(F)c(Cl)cc(OC2CC2)c1C#N
- GI50 [1]: 35 µM and 25.5 µM
- TGI [1]: > 100 µM
- GI50 [2]: 14.5 µM and 12.6 µM
- TGI [2]: 29.1 µM and 26.2 µM
- GI50 [3]: 12.4 µM and 11 µM
- TGI [3]: 33.8 µM and 29.9 µM
- GI50 [4]: 12.7 µM and 9.22 µM
- TGI [4]: 27.4 µM and 23.1 µM
- GI50 [5]: 14.9 µM and 16 µM
- TGI [5]: 47.5 µM and 47.8 µM
- GI50 [6]: 20.6 µM and 23.1 µM
- TGI [6]: > 100 µM
- GI50 [7]: 11.9 µM and 10.7 µM
- TGI [7]: 24.7 µM and 22.9 µM

Structure (SMILES): N=C1C(O)C2(I)c3ccccc3N3C(=N)C(O)C4c5ccccc5N1C4C32 (stereo unspecified)
- TGI [1]: > 100 µM
- TGI [2]: 30.1 µM
- TGI [3]: > 100 µM
- TGI [4]: > 100 µM
- TGI [5]: > 100 µM
- TGI [6]: 79.4 µM
- TGI [7]: 37.9 µM

Structure (SMILES): O=C1OCC2=C1C(c1cccc(F)c1)c1cc3c(cc1N2CCO)OCO3 (stereo unspecified)
- GI50 [1]: 2.02 µM
- TGI [1]: > 50 µM
- GI50 [2]: 46.8 µM
- TGI [2]: > 50 µM
- GI50 [3]: 1.42 µM
- TGI [3]: > 50 µM
- GI50 [4]: 0.259 µM
- TGI [4]: 29 µM
- GI50 [5]: 2.28 µM
- TGI [5]: > 50 µM
- GI50 [7]: 0.187 µM
- TGI [7]: 1.57 µM

Structure (SMILES): Nc1ncn([C@@H]2S[C@H](CO)[C@@H](O)[C@@H]2F)c(=O)n1
- GI50 [1]: 0.285 µM
- TGI [1]: > 100 µM
- GI50 [2]: > 100 µM
- TGI [2]: > 100 µM
- GI50 [3]: > 100 µM
- TGI [3]: > 100 µM
- GI50 [4]: > 100 µM
- TGI [4]: > 100 µM
- GI50 [5]: 22.4 µM
- TGI [5]: > 100 µM
- GI50 [6]: 0.571 µM
- TGI [6]: > 31.5 µM
- GI50 [7]: 0.692 µM
- TGI [7]: > 100 µM

Structure (SMILES): COc1cc(C)ccc1C(=O)c1ccc(C)cc1OC
- GI50 [1]: 1.31 µM
- TGI [1]: 8.14 µM
- GI50 [2]: 45.1 µM
- TGI [2]: > 100 µM
- GI50 [3]: 3.45 µM
- TGI [3]: > 100 µM
- GI50 [4]: 1.76 µM
- TGI [4]: 4.96 µM
- GI50 [5]: 3.7 µM
- TGI [5]: 27.7 µM
- GI50 [7]: 0.295 µM
- TGI [7]: 1.08 µM

Structure (SMILES): CC(C)=CCN1c2ccccc2NC(=O)CC1C (stereo unspecified)
- TGI [1]: > 100 µM
- TGI [2]: 73.8 µM
- TGI [3]: > 100 µM
- TGI [4]: > 100 µM
- TGI [5]: > 100 µM
- TGI [6]: > 100 µM
- TGI [7]: > 100 µM

Structure (SMILES): CCOc1ccccc1CCN=C1NC(=O)/C(=C/c2ccc3ncccc3c2)S1
- GI50 [1]: 1.28 µM
- TGI [1]: > 22.7 µM
- GI50 [2]: 1.36 µM
- TGI [2]: > 22.9 µM
- GI50 [3]: 2.76 µM
- TGI [3]: > 7.14 µM
- GI50 [4]: 0.676 µM
- TGI [4]: 3.49 µM
- GI50 [5]: 1.02 µM
- TGI [5]: 8.38 µM
- GI50 [6]: 0.789 µM
- TGI [6]: 2.65 µM
- GI50 [7]: 0.491 µM
- TGI [7]: 1.71 µM

Structure (SMILES): CC(=O)c1c(O)c(C)c(O)c(Cc2c(O)c3c(c(C(=O)/C=C/c4ccccc4)c2O)OC(C)(C)C=C3)c1O
- TGI [1]: 15.8 µM
- TGI [2]: 29.4 µM
- TGI [3]: > 100 µM
- TGI [4]: 11.5 µM
- TGI [5]: > 100 µM
- TGI [6]: 26.2 µM

Structure (SMILES): COc1cc(/C=C/C(=O)/C=C/c2cc(OC)c3c(c2)OCO3)cc2c1OCO2
- GI50 [1]: 52.8 µM
- TGI [1]: > 100 µM
- GI50 [2]: 52.8 µM
- TGI [2]: > 100 µM
- GI50 [3]: 95.3 µM
- TGI [3]: > 100 µM
- GI50 [4]: 14.5 µM
- TGI [4]: > 100 µM
- GI50 [6]: 63.4 µM
- TGI [6]: > 100 µM
- GI50 [7]: 1.92 µM
- TGI [7]: 4.22 µM

Structure (SMILES): Clc1ccc(-c2cn3ccnc3c(-c3ccc(Cl)cc3)n2)cc1
- GI50 [1]: 11.2 µM
- TGI [1]: 47.5 µM
- GI50 [3]: 26.3 µM
- TGI [3]: 92.4 µM
- GI50 [4]: > 100 µM
- TGI [4]: > 100 µM
- GI50 [5]: 10.1 µM
- TGI [5]: > 100 µM
- GI50 [6]: 0.954 µM
- TGI [6]: 19 µM
- GI50 [7]: 2.79 µM
- TGI [7]: 8.07 µM

Structure (SMILES): CC1=C([Se]CC(OC(=O)CC[Se]c2ccccc2)C(=O)NC(C)(C)C)C(=O)c2ccccc2C1=O (stereo unspecified)
- GI50 [1]: 1.63 µM
- TGI [1]: 3.18 µM
- GI50 [2]: 1.61 µM
- TGI [2]: 3 µM
- GI50 [4]: 1.67 µM
- TGI [4]: 3.34 µM
- GI50 [6]: 1.07 µM
- TGI [6]: 2.92 µM
- GI50 [7]: 2.21 µM
- TGI [7]: 4.7 µM

Structure (SMILES): Cc1c2cnccc2c(C)c2c1c1cc(C#N)ccc1n2C
- GI50 [1]: 0.117 µM
- TGI [1]: 0.736 µM
- GI50 [2]: 0.245 µM
- TGI [2]: 0.988 µM
- GI50 [3]: 0.241 µM
- TGI [3]: 1.3 µM
- GI50 [4]: 0.167 µM
- TGI [4]: 0.817 µM
- GI50 [5]: 0.202 µM
- TGI [5]: 0.907 µM
- GI50 [6]: 0.401 µM
- TGI [6]: 1.77 µM
- GI50 [7]: 0.271 µM
- TGI [7]: 0.899 µM
